Data published in patent US20250368649A1, “TETRAHYDROPYRIDOPYRIMIDINE PAN-KRAS INHIBITORS” (Mirati Therapeutics, Inc., priority 2022, published 2025).

Tests used:
KRas G12V = KRas G12V (Homo sapiens, UniProt P01116, G12V); assay: biochemical; settings: Binding to KRas (IC50 nM) G12V, TR-FRET displacement, KRas G12V
PSN1 cells = assay: Inhibition of KRas-mediated phosphorylation of ERK (Cisbio HTRF pERK), PSN1 cells; assay type: cell-based; settings: Homo sapiens, PSN1, 3 h
How it was run: (§1)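 Day 1: 6,000 cells/well plated, RPMI + 10% FBS.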

H460 cells = assay: Inhibition of KRas-mediated phosphorylation of ERK (Cisbio HTRF pERK), H460 cells; assay type: cell-based; settings: Homo sapiens; for IC50: NCI-H460, 3 h, 3 hr compound incubation; for inhibition at 0.1 µM: NCI-H460, single point at 100 nM, 3 hrs compound incubation
KRas G12D = KRas G12D (Homo sapiens, UniProt P01116, G12D); assay: biochemical; settings: Binding to KRas (IC50 nM) G12D, TR-FRET displacement, KRas G12D
KRas G12D, sequence (P01116 1-169 isoform P01116-2 G12D): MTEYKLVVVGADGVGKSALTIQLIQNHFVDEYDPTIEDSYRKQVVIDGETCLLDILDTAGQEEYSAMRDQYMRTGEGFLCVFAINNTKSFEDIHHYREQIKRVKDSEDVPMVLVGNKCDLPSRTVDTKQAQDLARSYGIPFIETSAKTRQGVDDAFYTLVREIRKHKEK

H358 cells = assay: Inhibition of KRas-mediated phosphorylation of ERK (Cisbio HTRF pERK), H358 cells; assay type: cell-based; settings: Homo sapiens; for IC50: NCI-H358, 3 h, 3 hr compound incubation; for inhibition at 0.1 µM: NCI-H358, single point at 100 nM, 3 hrs compound incubation
KRas G12R = KRas G12R (Homo sapiens, UniProt P01116, G12R); assay: biochemical; settings: Binding to KRas (IC50 nM) G12R, TR-FRET displacement, KRas G12R
KRas G12R, sequence (P01116 1-169 isoform P01116-2 G12R): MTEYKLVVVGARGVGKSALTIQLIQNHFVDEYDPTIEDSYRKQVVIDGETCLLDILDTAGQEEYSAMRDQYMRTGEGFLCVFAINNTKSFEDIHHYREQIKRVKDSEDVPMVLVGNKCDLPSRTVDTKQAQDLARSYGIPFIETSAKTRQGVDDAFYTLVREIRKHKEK

HCT116 cells = assay: Inhibition of KRas-mediated phosphorylation of ERK (Cisbio HTRF pERK), HCT116 cells; assay type: cell-based; settings: Homo sapiens; for IC50: HCT-116, 3 h, 3 hr compound incubation; for inhibition at 0.1 µM: HCT-116, single point at 100 nM, 3 hrs compound incubation
H727 cells = assay: Inhibition of KRas-mediated phosphorylation of ERK (Cisbio HTRF pERK), H727 cells; assay type: cell-based; settings: Homo sapiens; for IC50: NCI-H727, 3 h, 3 hr compound incubation; for inhibition at 0.1 µM: NCI-H727, single point at 100 nM, 3 hrs compound incubation
A549 cells = assay: Inhibition of KRas-mediated phosphorylation of ERK (Cisbio HTRF pERK), A549 cells; assay type: cell-based; settings: Homo sapiens; for IC50: A549, 3 h, 3 hr compound incubation; for inhibition at 0.1 µM: single point at 100 nM, 3 hrs compound incubation
MKN1 cells = assay: Inhibition of KRas-mediated phosphorylation of ERK (Cisbio HTRF pERK), MKN1 cells; assay type: cell-based; settings: Homo sapiens
How it was run: as §1

ASPC1 cells = assay: Inhibition of KRas-mediated phosphorylation of ERK (Cisbio HTRF pERK), ASPC1 cells; assay type: cell-based; settings: Homo sapiens, AsPC-1 cells; for IC50: ASPC1, 3 h, 3 hr compound incubation; for inhibition at 0.1 µM: ASPC1, single point at 100 nM, 3 hrs compound incubation
[1] = 3 hour compound incubation, Cisbio pERK HTRF
[2] = MKN-1, 3 hour compound incubation, Cisbio pERK HTRF

KRas G12V, sequence (P01116 1-169 isoform P01116-2 G12V): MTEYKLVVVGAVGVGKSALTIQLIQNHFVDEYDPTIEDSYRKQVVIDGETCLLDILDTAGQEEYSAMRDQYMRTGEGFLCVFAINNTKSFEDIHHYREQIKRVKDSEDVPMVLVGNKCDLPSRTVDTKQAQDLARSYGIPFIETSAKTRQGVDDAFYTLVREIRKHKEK

Row | Structure (SMILES) | IC50 (KRas G12V) | IC50 (KRas G12D) | IC50 (KRas G12R) | IC50 (PSN1 cells; [1]) | inhibition at 0.1 µM (H460 cells) | inhibition at 0.1 µM (H358 cells) | inhibition at 0.1 µM (HCT116 cells) | IC50 (H727 cells; Cisbio pERK HTRF) | inhibition at 0.1 µM (A549 cells) | IC50 (MKN1 cells; [2]) | IC50 (ASPC1 cells; Cisbio pERK HTRF) | IC50 (H460 cells; Cisbio pERK HTRF) | IC50 (HCT116 cells; Cisbio pERK HTRF) | IC50 (A549 cells; Cisbio pERK HTRF) | also measured
1 | C[C@@H]1C[C@@H]1c1c(Cl)cc(O)cc1N1CCc2c(nc(OC[C@@]34CCCN3C[C@H](F)C4)nc2N2CCC[C@]3(CNS(=O)(=O)N3)C2)C1 (stereo in doubt) [Example 654, (R)-7-(7-(3-chloro-5-hydroxy-2-(cis-2-methylcyclopropyl)phenyl)-2-(((2R,7aS)-2-fluorotetrahydro-1H-pyrrolizin-7a(5H)-yl)methoxy)-5,6,7,8-tetrahydropyrido[3,4-d]pyrimidin-4-yl)-2-thia-1,3,7-triazaspiro[4.5]decane 2,2-dioxide] | < 2 nM | 2 nM | 3 nM | – | – | – | – | – | – | – | – | – | – | – | IC50 (PSN1 cells; 3 hr compound incubation): 2660 nM; IC50 (H460 cells): 131 nM; IC50 (H358 cells): 72 nM; IC50 (HCT116 cells): 191 nM; IC50 (H727 cells): 323 nM; IC50 (A549 cells): 334 nM; IC50 (MKN1 cells; MKN-1, 3 hr compound incubation): 38.7 nM; IC50 (ASPC1 cells): 197 nM
2 | CCc1c(F)ccc2cc(O)cc(N3CCc4c(nc(OC[C@@]56CCCN5C[C@H](F)C6)nc4N4CCCn5nc(C(=O)N6CCC7CC6CN7)cc5C4)C3)c12 (stereo partly drawn) [Example 235, 2,6-diazabicyclo[3.2.1]octan-2-yl(5-(7-(8-ethyl-7-fluoro-3-hydroxynaphthalen-1-yl)-2-(((2R,7aS)-2-fluorohexahydro-1H-pyrrolizin-7a-yl)methoxy)-5,6,7,8-tetrahydropyrido[3,4-d]pyrimidin-4-yl)-5,6,7,8-tetrahydro-4H-pyrazolo[1,5-a][1,4]diazepin-2-yl)methanone] | < 2 nM | 2 nM | < 2 nM | > 10000 nM | 2% | 8% | 5% | 302 nM | 13% | 294 nM | 52 nM | – | – | – | inhibition at 0.1 µM (H727 cells): -5%; inhibition at 0.1 µM (ASPC1 cells): 30%
3 | CCc1c(F)ccc2cc(O)cc(N3CCc4c(nc(OC[C@@]56CCCN5C[C@H](F)C6)nc4N4CCCn5nc(C(=O)N6CC7(CCCN7)C6)cc5C4)C3)c12 [Example 277, (5-(7-(8-ethyl-7-fluoro-3-hydroxynaphthalen-1-yl)-2-(((2R,7aS)-2-fluorohexahydro-1H-pyrrolizin-7a-yl)methoxy)-5,6,7,8-tetrahydropyrido[3,4-d]pyrimidin-4-yl)-5,6,7,8-tetrahydro-4H-pyrazolo[1,5-a][1,4]diazepin-2-yl)(2,5-diazaspiro[3.4]octan-2-yl)methanone] | < 2 nM | < 2 nM | < 2 nM | > 10000 nM | 12% | 64% | -2% | 210 nM | 25% | 41.7 nM | 37 nM | – | – | – | –
4 | CCc1c(F)ccc2cc(O)cc(N3CCc4c(nc(OC[C@@]56CCCN5C[C@H](F)C6)nc4N4CCCn5nc(C(=O)N6CCC7(CCN7)C6)cc5C4)C3)c12 (stereo partly drawn) [Example 278, (5-(7-(8-ethyl-7-fluoro-3-hydroxynaphthalen-1-yl)-2-(((2R,7aS)-2-fluorohexahydro-1H-pyrrolizin-7a-yl)methoxy)-5,6,7,8-tetrahydropyrido[3,4-d]pyrimidin-4-yl)-5,6,7,8-tetrahydro-4H-pyrazolo[1,5-a][1,4]diazepin-2-yl)(1,6-diazaspiro[3.4]octan-6-yl)methanone] | < 2 nM | < 2 nM | < 2 nM | > 10000 nM | -10% | 12% | -6% | 659 nM | 22% | 156 nM | 68 nM | – | – | – | –
5 | CCc1c(F)ccc2cc(O)cc(N3CCc4c(nc(OC[C@@]56CCCN5C[C@H](F)C6)nc4N4CCCn5nc(CC(=O)N(C)C)cc5C4)C3)c12 [Example 317, 2-(5-(7-(8-ethyl-7-fluoro-3-hydroxynaphthalen-1-yl)-2-(((2R,7aS)-2-fluorohexahydro-1H-pyrrolizin-7a-yl)methoxy)-5,6,7,8-tetrahydropyrido[3,4-d]pyrimidin-4-yl)-5,6,7,8-tetrahydro-4H-pyrazolo[1,5-a][1,4]diazepin-2-yl)-N,N-dimethylacetamide] | 4 nM | 5 nM | 4 nM | > 10000 nM | 1% | 19% | 13% | 327 nM | 12% | 63 nM | 185 nM | – | – | – | –
6 | CCc1c(F)ccc2cc(O)cc(N3CCc4c(nc(OC[C@@]56CCCN5C[C@H](F)C6)nc4N4CCCn5nc(C(=O)NC)c(OC)c5C4)C3)c12 [Example 320, 5-(7-(8-ethyl-7-fluoro-3-hydroxynaphthalen-1-yl)-2-(((2R,7aS)-2-fluorohexahydro-1H-pyrrolizin-7a-yl)methoxy)-5,6,7,8-tetrahydropyrido[3,4-d]pyrimidin-4-yl)-3-methoxy-N-methyl-5,6,7,8-tetrahydro-4H-pyrazolo[1,5-a][1,4]diazepine-2-carboxamide] | < 2 nM | < 2 nM | < 2 nM | 1420 nM | 56% | 103% | 17% | 6 nM | 90% | 4.2 nM | 5 nM | 41 nM | 214 nM | 20 nM | IC50 (H358 cells; Cisbio pERK HTRF): 5 nM; inhibition at 0.1 µM (H727 cells): 70%; inhibition at 0.1 µM (ASPC1 cells): 99%
7 | CCc1c(F)ccc2cc(O)cc(N3CCc4c(nc(OC[C@@]56CCCN5C[C@H](F)C6)nc4N4CCCn5nc(CNS(=O)(=O)N(C)C)cc5C4)C3)c12 [Example 336, 7-(8-ethyl-7-fluoro-3-hydroxy-1-naphthyl)-2-(((2R,7aS)-2-fluorotetrahydro-1H-pyrrolizin-7a(5H)-yl)methoxy)-4-(2-((dimethylsulfamoyl)amino)methyl-7,8-dihydro-4H-pyrazolo[1,5-a][1,4]diazepin-5(6H)-yl)-6,8-dihydro-5H-pyrido[3,4-d]pyriimidine] | 8 nM | 3 nM | 7 nM | > 10000 nM | 1% | -26% | -11% | 517 nM | -24% | 531 nM | 289 nM | – | – | – | –
8 | CCc1c(F)ccc2cc(O)cc(N3CCc4c(nc(OC[C@@]56CCCN5C[C@H](F)C6)nc4N4CCCSCC4)C3)c12 [Example 417, 5-ethyl-6-fluoro-4-(2-(((2R,7aS)-2-fluorohexahydro-1H-pyrrolizin-7a-yl)methoxy)-4-(1,4-thiazepan-4-yl)-5,6-dihydropyrido[3,4-d]pyrimidin-7(8H)-yl)naphthalen-2-ol] | < 2 nM | 13 nM | < 2 nM | 5700 nM | – | – | – | 128 nM | – | 29.3 nM | 208 nM | 84 nM | 273 nM | 63 nM | –
9 | CCc1c(F)ccc2cc(O)cc(N3CCc4c(nc(OCC5(CN(C)C)CC5)nc4N4CCCn5nncc5C4)C3)c12 [Example 430, 4-(4-(7,8-dihydro-4H-[1,2,3]triazolo[1,5-a][1,4]diazepin-5(6H)-yl)-2-((1-((dimethylamino)methyl)cyclopropyl)methoxy)-5,6-dihydropyrido[3,4-d]pyrimidin-7(8H)-yl)-5-ethyl-6-fluoronaphthalen-2-ol] | < 2 nM | < 2 nM | < 2 nM | > 10000 nM | – | – | – | 269 nM | – | 94.9 nM | 134 nM | 439 nM | 1030 nM | 592 nM | –
